pEC50, pIC50, pKi: −log10 of the molar value. ≈ marks a conversion by molar mass, not a printed value.
Experiments:
[1] = target: Protein deacetylase HDAC6 (Homo sapiens, UniProt Q9UBN7); test: Inhibition of HDAC6 (unknown origin)
Candida albicans = test: Antifungal activity against Candida albicans at 1000 ug/ml after 48 hrs by filter paper disc method; type: functional; settings: read-out: IZ
Estrogen receptor [2] = target: T1, Estrogen receptor (Homo sapiens, UniProt P03372); test: Antagonist activity at ER in human Ishikawa cells assessed as inhibition of E2-induced alkaline phosphatase induction after 72 hrs by PNPP substrate based spectophotometric method; type: cell-based
T1 sequence (P03372 whole entry): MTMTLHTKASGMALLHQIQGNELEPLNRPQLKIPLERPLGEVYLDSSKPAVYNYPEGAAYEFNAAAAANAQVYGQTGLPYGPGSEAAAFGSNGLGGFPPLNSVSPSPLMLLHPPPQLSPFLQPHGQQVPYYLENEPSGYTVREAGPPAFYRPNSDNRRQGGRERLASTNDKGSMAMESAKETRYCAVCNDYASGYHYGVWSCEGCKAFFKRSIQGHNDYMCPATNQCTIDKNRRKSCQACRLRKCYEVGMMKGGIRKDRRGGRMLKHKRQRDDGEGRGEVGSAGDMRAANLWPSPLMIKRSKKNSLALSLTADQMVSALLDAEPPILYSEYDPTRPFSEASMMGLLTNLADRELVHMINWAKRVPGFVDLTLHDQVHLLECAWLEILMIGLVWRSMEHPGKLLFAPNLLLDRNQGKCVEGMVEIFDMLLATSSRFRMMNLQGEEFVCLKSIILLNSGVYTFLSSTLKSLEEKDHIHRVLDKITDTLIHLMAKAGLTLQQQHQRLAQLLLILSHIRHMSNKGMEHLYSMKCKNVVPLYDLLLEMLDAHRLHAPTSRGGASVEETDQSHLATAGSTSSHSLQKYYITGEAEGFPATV

Estrogen receptor [3] = target: T1, Estrogen receptor; test: Agonist activity at ER in human Ishikawa cells assessed as alkaline phosphatase induction after 72 hrs by PNPP substrate based spectophotometric method; type: cell-based
Estrogen receptor beta = Estrogen receptor beta (Homo sapiens, UniProt Q92731); test: Binding affinity to ERbeta (unknown origin)
Estrogen receptor [4] = target: T1, Estrogen receptor; test: Binding affinity to ERalpha (unknown origin)
MCF7 = test: Inhibition of 17beta-estradiol-induced human MCF7 cells proliferation assessed as reduction in [3H]thymidine incorporation preincubated for 48 hrs followed by [3H]thymidine addition measured after 4 hrs by liquid scintillation counting method; type: functional, cell-based
Acetylcholinesterase [5] = target: T2, Acetylcholinesterase (Homo sapiens, UniProt P22303); test: Inhibition of AChE (unknown origin) using acetylthiocholine as substrate by Ellman's method relative to control; settings: concentration not given here
Penicillium chrysogenum = test: Antifungal activity against Penicillium notatum at 1000 ug/ml after 48 hrs by filter paper disc method; type: functional; settings: read-out: IZ
Aspergillus niger [6] = test: Antifungal activity against Aspergillus niger at 1000 ug/ml after 48 hrs by filter paper disc method; type: functional; settings: read-out: IZ
[7] = target: Gamma-aminobutyric acid receptor subunit alpha-5 (Homo sapiens, UniProt P31644); test: Antagonist activity at human GABA-A alpha5 receptor expressed in HEK293 cell membranes assessed as inhibition of GABA-induced response preincubated for 40 mins followed by GABA addition by FLIPR assay; type: cell-based
[8] = target: Gamma-aminobutyric acid receptor subunit alpha-1 (Homo sapiens, UniProt P14867); test: Antagonist activity at human GABA-A alpha1 receptor expressed in HEK293 cell membranes assessed as inhibition of GABA-induced response preincubated for 40 mins followed by GABA addition by FLIPR assay; type: cell-based
Rattus norvegicus [9] = test: Inhibition of glucose-induced sorbitol accumulation in sciatic nerve of streptozotocin-induced diabetic rat model administered via oral gavage at 4 to 24 hrs post streptozotocin treatment measured at 27 hrs post streptozotocin treatment relative to control; type: functional
[10] = 1-octanol/phosphate buffer partition coefficient, log P of the compound at pH 7.4 by ultraviolet spectrophotometric method; type: physicochemical
[11] = target: T3, Amyloid-beta precursor protein (Homo sapiens, UniProt P05067); test: Inhibition of [125I]2-(3'-Iodo-4'-N-methylaminophenyl) benzothiazole binding to amyloid beta (1 to 40) (unknown origin) after 3 hrs by NaI well counting method
[12] = target: T3, Amyloid-beta precursor protein; test: Inhibition of [125I]2-(3'-Iodo-4'-N-methylaminophenyl) benzothiazole binding to amyloid beta (1 to 42) (unknown origin) after 3 hrs by NaI well counting method
Staphylococcus aureus = test: Antibacterial activity against Staphylococcus aureus at 5 ug/disc; type: functional; settings: read-out: IZ
Bacillus subtilis = test: Antibacterial activity against Bacillus subtilis at 5 ug/disc; type: functional; settings: read-out: IZ
Rattus norvegicus [13] = test: Anti-inflammatory activity in rat assessed as inhibition of hind paw edema relative to control; type: functional
Neutrophil = test: Anti inflammatory activity in human neuterophils preincubated for 10 mins followed by zymosan activated serum addition measured for 30 mins; type: functional, cell-based
Escherichia coli [14] = test: Antibacterial activity against Escherichia coli ATCC 35218 at 40 ug/ml after 48 hrs by filter paper disc method; type: functional; settings: ATCC 35218, 48 h, read-out: IZ
Bacillus spizizenii = test: Antibacterial activity against Bacillus subtilis ATCC 6633 at 1000 ug/ml after 48 hrs by filter paper disc method; type: functional; settings: ATCC 6633, 48 h, read-out: IZ
Escherichia coli [15] = test: Antibacterial activity against Escherichia coli ATCC 35218 at 1000 ug/ml after 48 hrs by filter paper disc method; type: functional; settings: ATCC 35218, 48 h, read-out: IZ
[16] = target: Calpain-1 catalytic subunit (Homo sapiens, UniProt P07384); test: Inhibition of human erythrocytes mu-calpain using SucLeu-Tyr-AMC as substrate
[17] = Antioxidant activity assessed as inhibition of superoxide anion radical formation after 5 mins in presence of PMS and NADH by nitroblue tetrazolium method relative to control; type: functional
[18] = Antioxidant activity assessed as inhibition of DPPH radical formation at 1000 ug/ml relative to control; type: functional
SK-N-SH = test: Growth inhibition of human SK-N-SH cells; type: functional
FaDu = test: Growth inhibition of human FADU cells; type: functional
DU-145 = test: Growth inhibition of human DU145 cells; type: functional
SW-1736 = test: Growth inhibition of human SW1736 cells; type: functional
BXPC-3 = test: Growth inhibition of human BxPC3 cells; type: functional
NCI-H460 = test: Growth inhibition of human NCI-H460 cells; type: functional, cell-based
Cholinesterase = Cholinesterase (Homo sapiens, UniProt P06276); test: Inhibition of BuChE (unknown origin)
Acetylcholinesterase [19] = target: T2, Acetylcholinesterase; test: Inhibition of AChE (unknown origin)
[20] = Antioxidant activity assessed as inhibition of DPPH radical formation at 100 ug/ml relative to control; type: functional
[21] = system: Panel NCI-60 (60 carcinoma cell lines); test: Growth inhibition of human NCI60 cells; type: functional
Tubulin = test: Inhibition of tubulin polymerization (unknown origin); type: protein-complex assay, Homo sapiens
Pseudomonas aeruginosa = test: Antibacterial activity against Pseudomonas aeruginosa by broth dilution method; type: functional
Aspergillus niger [22] = test: Antifungal activity against Aspergillus niger by broth dilution method; type: functional
Aspergillus clavatus = test: Antifungal activity against Aspergillus clavatus by broth dilution method; type: functional

T2 sequence (P22303 whole entry): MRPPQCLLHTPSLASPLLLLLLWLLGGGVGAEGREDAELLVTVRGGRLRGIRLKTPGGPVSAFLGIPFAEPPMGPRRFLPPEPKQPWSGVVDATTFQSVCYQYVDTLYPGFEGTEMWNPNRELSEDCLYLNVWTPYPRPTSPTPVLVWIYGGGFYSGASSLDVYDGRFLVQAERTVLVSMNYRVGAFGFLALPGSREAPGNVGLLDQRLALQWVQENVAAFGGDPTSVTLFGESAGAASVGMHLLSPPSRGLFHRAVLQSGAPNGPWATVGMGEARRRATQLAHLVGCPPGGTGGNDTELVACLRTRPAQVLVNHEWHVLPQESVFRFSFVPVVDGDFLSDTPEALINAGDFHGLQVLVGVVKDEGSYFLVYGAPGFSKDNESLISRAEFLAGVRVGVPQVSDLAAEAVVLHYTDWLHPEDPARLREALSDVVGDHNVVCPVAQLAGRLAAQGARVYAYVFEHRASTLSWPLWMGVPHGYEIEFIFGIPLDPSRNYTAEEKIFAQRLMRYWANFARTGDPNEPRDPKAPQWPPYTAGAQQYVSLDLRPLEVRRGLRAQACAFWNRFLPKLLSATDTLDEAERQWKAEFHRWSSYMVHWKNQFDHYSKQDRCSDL
T3 sequence (P05067 whole entry): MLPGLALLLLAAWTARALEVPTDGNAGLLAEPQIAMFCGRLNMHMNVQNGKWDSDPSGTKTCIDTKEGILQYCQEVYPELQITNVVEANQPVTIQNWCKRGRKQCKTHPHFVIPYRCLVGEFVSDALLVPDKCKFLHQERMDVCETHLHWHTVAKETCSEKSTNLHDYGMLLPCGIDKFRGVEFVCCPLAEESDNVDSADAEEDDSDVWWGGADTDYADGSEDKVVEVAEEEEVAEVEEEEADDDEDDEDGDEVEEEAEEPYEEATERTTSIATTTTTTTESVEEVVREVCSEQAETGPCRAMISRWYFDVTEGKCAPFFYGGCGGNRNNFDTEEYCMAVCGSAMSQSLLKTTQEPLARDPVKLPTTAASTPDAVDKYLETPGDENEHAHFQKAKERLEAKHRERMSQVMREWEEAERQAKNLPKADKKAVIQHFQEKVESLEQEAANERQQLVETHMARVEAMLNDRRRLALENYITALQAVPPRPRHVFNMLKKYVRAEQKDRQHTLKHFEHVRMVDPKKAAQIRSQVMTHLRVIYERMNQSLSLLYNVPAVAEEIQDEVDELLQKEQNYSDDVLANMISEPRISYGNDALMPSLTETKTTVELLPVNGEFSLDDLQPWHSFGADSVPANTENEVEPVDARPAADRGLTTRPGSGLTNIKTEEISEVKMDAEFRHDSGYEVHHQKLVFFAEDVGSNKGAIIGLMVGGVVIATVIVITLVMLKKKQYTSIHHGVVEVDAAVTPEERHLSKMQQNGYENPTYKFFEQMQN
Sequence of Cholinesterase (P06276 whole entry): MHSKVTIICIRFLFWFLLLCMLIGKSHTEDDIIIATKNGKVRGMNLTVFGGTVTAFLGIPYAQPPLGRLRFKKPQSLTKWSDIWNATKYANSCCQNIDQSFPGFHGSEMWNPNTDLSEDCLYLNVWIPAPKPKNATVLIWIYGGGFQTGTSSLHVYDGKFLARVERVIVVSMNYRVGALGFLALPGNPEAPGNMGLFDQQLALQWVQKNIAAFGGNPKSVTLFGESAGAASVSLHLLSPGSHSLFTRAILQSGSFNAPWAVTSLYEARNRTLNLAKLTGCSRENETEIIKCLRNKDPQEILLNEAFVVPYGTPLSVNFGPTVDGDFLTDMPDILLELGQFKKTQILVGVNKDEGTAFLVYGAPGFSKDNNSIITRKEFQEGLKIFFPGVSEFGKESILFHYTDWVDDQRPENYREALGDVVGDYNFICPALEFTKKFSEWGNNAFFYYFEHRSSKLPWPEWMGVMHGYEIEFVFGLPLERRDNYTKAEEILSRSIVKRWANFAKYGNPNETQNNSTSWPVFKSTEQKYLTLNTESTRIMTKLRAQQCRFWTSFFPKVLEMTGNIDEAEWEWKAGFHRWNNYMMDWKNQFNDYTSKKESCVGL
Sequence of Protein deacetylase HDAC6 (Q9UBN7 whole entry): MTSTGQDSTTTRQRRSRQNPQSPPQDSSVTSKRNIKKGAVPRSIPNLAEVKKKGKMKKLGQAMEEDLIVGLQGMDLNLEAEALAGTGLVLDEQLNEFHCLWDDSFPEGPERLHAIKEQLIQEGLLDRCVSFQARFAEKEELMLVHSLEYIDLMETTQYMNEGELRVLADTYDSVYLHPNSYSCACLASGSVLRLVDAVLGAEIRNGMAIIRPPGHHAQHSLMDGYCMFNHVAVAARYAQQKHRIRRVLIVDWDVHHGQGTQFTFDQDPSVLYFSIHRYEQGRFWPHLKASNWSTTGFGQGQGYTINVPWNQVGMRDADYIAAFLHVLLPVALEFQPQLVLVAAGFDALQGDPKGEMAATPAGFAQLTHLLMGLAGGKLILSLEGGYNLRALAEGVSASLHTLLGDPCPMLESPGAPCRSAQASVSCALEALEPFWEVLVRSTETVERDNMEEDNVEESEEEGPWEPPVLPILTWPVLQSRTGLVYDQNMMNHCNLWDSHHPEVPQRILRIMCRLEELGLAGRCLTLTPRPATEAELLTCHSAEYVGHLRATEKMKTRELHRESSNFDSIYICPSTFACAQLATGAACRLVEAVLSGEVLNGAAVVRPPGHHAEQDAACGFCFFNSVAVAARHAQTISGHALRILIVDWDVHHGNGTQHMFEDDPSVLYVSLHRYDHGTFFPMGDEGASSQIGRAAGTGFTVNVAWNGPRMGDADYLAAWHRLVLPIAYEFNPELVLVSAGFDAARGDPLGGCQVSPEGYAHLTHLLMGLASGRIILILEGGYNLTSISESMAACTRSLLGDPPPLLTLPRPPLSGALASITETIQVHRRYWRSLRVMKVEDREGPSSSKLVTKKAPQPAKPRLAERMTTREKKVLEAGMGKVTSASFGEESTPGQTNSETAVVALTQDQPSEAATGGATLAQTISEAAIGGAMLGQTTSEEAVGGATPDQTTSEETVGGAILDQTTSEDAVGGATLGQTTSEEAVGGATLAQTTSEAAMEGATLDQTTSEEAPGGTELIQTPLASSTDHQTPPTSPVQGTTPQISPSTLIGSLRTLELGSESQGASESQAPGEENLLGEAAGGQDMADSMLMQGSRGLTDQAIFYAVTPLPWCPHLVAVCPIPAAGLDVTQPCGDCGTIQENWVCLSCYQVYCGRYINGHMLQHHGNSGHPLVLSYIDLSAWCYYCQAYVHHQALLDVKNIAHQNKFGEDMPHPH
Sequence of Gamma-aminobutyric acid receptor subunit alpha-5 (P31644 whole entry): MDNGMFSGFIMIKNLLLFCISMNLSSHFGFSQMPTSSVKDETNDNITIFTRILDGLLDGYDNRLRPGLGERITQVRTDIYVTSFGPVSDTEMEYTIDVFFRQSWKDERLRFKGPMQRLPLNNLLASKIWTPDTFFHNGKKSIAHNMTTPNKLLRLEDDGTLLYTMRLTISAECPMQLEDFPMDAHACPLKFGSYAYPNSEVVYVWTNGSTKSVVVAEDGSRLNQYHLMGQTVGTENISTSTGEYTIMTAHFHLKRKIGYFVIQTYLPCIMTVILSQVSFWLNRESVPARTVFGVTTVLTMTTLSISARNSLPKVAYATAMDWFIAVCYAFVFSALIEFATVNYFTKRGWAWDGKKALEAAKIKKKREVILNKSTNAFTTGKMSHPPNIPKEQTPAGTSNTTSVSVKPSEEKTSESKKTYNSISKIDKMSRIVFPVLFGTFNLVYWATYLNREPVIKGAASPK
Sequence of Gamma-aminobutyric acid receptor subunit alpha-1 (P14867 whole entry): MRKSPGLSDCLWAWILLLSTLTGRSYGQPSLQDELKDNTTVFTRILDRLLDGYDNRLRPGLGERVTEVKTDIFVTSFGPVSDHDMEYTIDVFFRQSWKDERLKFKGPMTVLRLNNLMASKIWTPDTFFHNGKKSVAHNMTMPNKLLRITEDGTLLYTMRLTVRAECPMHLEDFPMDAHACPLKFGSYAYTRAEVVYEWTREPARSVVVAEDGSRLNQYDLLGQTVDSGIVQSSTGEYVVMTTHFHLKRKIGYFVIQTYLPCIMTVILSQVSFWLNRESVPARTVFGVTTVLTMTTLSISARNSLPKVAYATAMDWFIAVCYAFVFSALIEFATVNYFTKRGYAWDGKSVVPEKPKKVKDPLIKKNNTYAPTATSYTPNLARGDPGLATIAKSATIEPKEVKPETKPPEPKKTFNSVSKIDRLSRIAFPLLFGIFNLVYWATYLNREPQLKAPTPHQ
Sequence of Estrogen receptor beta (Q92731 whole entry): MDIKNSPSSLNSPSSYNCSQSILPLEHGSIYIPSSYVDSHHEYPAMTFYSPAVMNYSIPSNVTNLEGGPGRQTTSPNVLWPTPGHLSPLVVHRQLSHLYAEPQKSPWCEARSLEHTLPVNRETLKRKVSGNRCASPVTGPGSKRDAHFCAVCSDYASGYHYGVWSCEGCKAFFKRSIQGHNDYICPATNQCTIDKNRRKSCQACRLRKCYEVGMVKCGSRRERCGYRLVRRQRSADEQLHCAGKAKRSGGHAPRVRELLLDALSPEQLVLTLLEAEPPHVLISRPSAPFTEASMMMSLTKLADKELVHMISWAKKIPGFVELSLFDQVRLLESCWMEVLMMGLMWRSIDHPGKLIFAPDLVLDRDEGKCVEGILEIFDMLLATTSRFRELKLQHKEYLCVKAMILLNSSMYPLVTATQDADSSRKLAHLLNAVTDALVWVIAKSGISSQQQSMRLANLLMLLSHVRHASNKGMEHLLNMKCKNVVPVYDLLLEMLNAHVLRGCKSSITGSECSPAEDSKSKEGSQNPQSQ

With `CNC(=O)c1ccc(Nc2c[nH]c3ccccc23)cc1` the pIC50 [1] was 6.70.
With `O=C(CSc1nnc(-c2sc3ccccc3c2Cl)[nH]1)c1ccccc1` the zone of inhibition at 1000 µg/mL (Candida albicans) was 16 mm.
For `Oc1ccc2c(c1)C(c1ccc(OCCN3CCCCC3)cc1)c1c(sc3cc(O)ccc13)C2` (stereo not drawn), the pIC50 (Estrogen receptor [2]) was 7.28, the pEC50 (Estrogen receptor [3]) was 9.05 and the pKi (Estrogen receptor beta) was 9.05. It also gave a pKi (Estrogen receptor [4]) of 9.30.
Work on `O=C(c1ccc(OCCN2CCCCC2)cc1)c1c(-c2ccc(Cl)cc2)sc2cc(O)ccc12` yielded a pIC50 (MCF7) of 9.00.
With `CCOC(=O)c1c(NC(=O)CN2CCN(Cc3ccccc3)CC2)sc2c1CCCC2` the inhibition (Acetylcholinesterase [5]) was 38.4%.
With `Nc1c(C(=O)Nn2c(=O)cc(-c3ccccc3)c3ccc(O)cc32)sc2cc(F)ccc12` the zone of inhibition at 1000 µg/mL (Penicillium chrysogenum) was 26 mm and the zone of inhibition at 1000 µg/mL (Aspergillus niger [6]) was 27 mm.
With `CC1=NN=C(c2cc3c(C(F)(F)F)cccc3s2)c2cc3oc(=O)[nH]c3cc2C1` the pIC50 [7] was 6.70 and the pIC50 [8] was 6.32.
For `O=C(O)Cc1nn(Cc2nc3cc(C(F)(F)F)ccc3s2)c(=O)c2ccccc12` [ZOPOLRESTAT], the “inhibition (INH)” value (Rattus norvegicus [9]) was 80%.
In the case of `Oc1ccc(-c2cc3ccccc3s2)cc1`, the logD [10] was 2.99, the pKi [11] was 8.52 and the pKi [12] was 8.43.
Compound `COc1ccc(C2OC(c3sc4ccccc4c3Cl)=NN2C(C)=O)cc1` (stereo not drawn) has a zone of inhibition at 5 µg/disc (Staphylococcus aureus) of 28 mm and a zone of inhibition at 5 µg/disc (Bacillus subtilis) of 28 mm.
With `CCOC(=O)c1c(NC(=O)C(Cl)Cl)sc2c1CCCC2` the “inhibition (INH)” value (Rattus norvegicus [13]) was 81% and the pIC50 (Neutrophil) was 3.40.
In the case of `Cc1ccccc1NNC(=O)Nc1sc2ccccc2c1Cl`, the zone of inhibition at 40 µg/mL (Escherichia coli [14]) was 13 mm.
`O=c1[nH]c(-c2sc3ccccc3c2Cl)nc2ccccc12` gave a zone of inhibition at 1000 µg/mL (Bacillus spizizenii) of 15 mm and a zone of inhibition at 1000 µg/mL (Escherichia coli [15]) of 16 mm.
For `CNC(=O)c1ccc(Nc2csc3ccccc23)cc1`, the pIC50 [1] was 7.85.
In the case of `Nc1ccc(-c2cc3ccccc3s2)cc1`, the logD [10] was 2.87, the pKi [11] was 8.37 and the pKi [12] was 8.19.
`NC(=O)c1c(NC(=O)CN2CCN(Cc3ccccc3)CC2)sc2c1CCCC2` showed an inhibition (Acetylcholinesterase [5]) of 56.7%.
For `Clc1c(NNc2nc(-c3ccccc3)cs2)sc2ccccc12`, the zone of inhibition at 1000 µg/mL (Candida albicans) was 15 mm.
In the case of `O=c1c2ccccc2nc(-c2sc3ccccc3c2Cl)n1O`, the zone of inhibition at 1000 µg/mL (Bacillus spizizenii) was 16 mm and the zone of inhibition at 1000 µg/mL (Escherichia coli [15]) was 12 mm.
Work on `NC(=O)C(=O)C(Cc1ccccc1)NC(=O)C1CCN(c2cc3ccccc3s2)CC1` (stereo not drawn) yielded a pKi [16] of 8.05.
With `CCOC(=O)c1c(N)sc2c1CCCC2` the “inhibition (INH)” value (Rattus norvegicus [13]) was 61%, the pIC50 (Neutrophil) was 3.92 and the inhibition [17] was 58.6%.
Work on `COc1cccc(C2OC(c3sc4ccccc4c3Cl)=NN2C(C)=O)c1` (stereo not drawn) yielded a zone of inhibition at 5 µg/disc (Staphylococcus aureus) of 30 mm and a zone of inhibition at 5 µg/disc (Bacillus subtilis) of 27 mm.
Work on `CCOC(=O)c1c(-n2c(-c3ccccc3)nc3c(Br)cc(Br)cc3c2=O)sc2c1CCCC2` yielded an inhibition [18] of 67%.
For `O=C(O)Cc1nn(Cc2cc3cc(F)ccc3s2)c(=O)c2ccccc12`, the “inhibition (INH)” value (Rattus norvegicus [9]) was 49%.
Work on `COc1ccc(-c2c(Oc3cc(OC)c(OC)c(OC)c3)c3ccc(OC)cc3[s+]2[O-])cc1` (stereo not drawn) yielded a GI50 (SK-N-SH) of 1.9 µg/mL (≈ 4.06 µM), a GI50 (FaDu) of 3.4 µg/mL (≈ 7.26 µM) and a GI50 (DU-145) of 7.3 µg/mL (≈ 15.6 µM). For the same compound, the GI50 (SW-1736) was 3.7 µg/mL (≈ 7.9 µM), the GI50 (BXPC-3) was 2.1 µg/mL (≈ 4.48 µM) and the GI50 (NCI-H460) was 3.2 µg/mL (≈ 6.83 µM).
With `O=C(c1ccc(OCCN2CCCCC2)cc1)c1c(-c2ccc(O)cc2)sc2cccc(O)c12` the pIC50 (MCF7) was 6.72.
In the case of `O=C1SCc2cccc([N+](=O)[O-])c21`, the pKi (Cholinesterase) was 3.47 and the pKi (Acetylcholinesterase [19]) was 4.93.
In the case of `Cc1cc(=O)oc2c(/C=N/NC(=O)c3sc4ccccc4c3Cl)c(O)ccc12`, the inhibition [20] was 70%.
For `COc1ccc(-c2sc3cc(OC)ccc3c2Oc2cc(OC)c(OC)c(OC)c2)cc1`, the GI50 [21] was 0.49 µM, the GI50 (SK-N-SH) was 0.063 µg/mL (≈ 0.139 µM) and the GI50 (FaDu) was 0.098 µg/mL (≈ 0.217 µM). It also gave a pIC50 (Tubulin) of 6.06, a GI50 (DU-145) of 0.42 µg/mL (≈ 0.928 µM) and a GI50 (SW-1736) of 0.73 µg/mL (≈ 1.61 µM). It also gave a GI50 (BXPC-3) of 0.23 µg/mL (≈ 0.508 µM) and a GI50 (NCI-H460) of 0.31 µg/mL (≈ 0.685 µM).
For `CC1(C)CC(=O)C2=C(C1)NC(=O)NC2c1cn(C(=O)c2sc3ccc(F)cc3c2Cl)c2ccccc12` (stereo not drawn), the MIC (Pseudomonas aeruginosa) was 100 µg/mL (≈ 192 µM), the MIC (Aspergillus niger [22]) was 100 µg/mL (≈ 192 µM) and the MIC (Aspergillus clavatus) was 100 µg/mL (≈ 192 µM).
Work on `Cc1cccc(NC(=O)Nc2sc3ccccc3c2Cl)c1` yielded a zone of inhibition at 40 µg/mL (Escherichia coli [14]) of 13 mm.
Work on `O=C1SCc2ccccc21` yielded a pKi (Cholinesterase) of 2.31 and a pKi (Acetylcholinesterase [19]) of 4.22.
